pEC50: −log10 of the molar value.
The compounds below were run on Hepatitis C replicon (assay: HCV replicon assay (NPT ELISA readout) in Huh-7 replicon-containing cells). Details: Hepatitis C virus, 72 h; HCV replicon in Huh-7 cells, three days incubation.
Type: cell-based, Hepatitis C virus
How it was run: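 Replication is measured as neomycin phosphotransferase level by captured ELISA after three days of compound exposure (typically 10 to 0.03 μM, 6 concentrations) at 37 °C. Cells are Huh-7 harbouring an HCV replicon with neo gene and NS3-NS5B; interferon alpha is the positive control.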
COc1ccc2c(O[C@@H]3C[C@H]4C(=O)N[C@]5(C(=O)NS(=O)(=O)C6CC6)C[C@H]5/C=C\CCCCC[C@H](CC(=O)N5CCCC(F)C5)C(=O)N4C3)cc(-c3ccccn3)nc2c1Cl (stereo partly drawn) [Compound 100, (2R,6R,14aR,16aS,Z)-2-(8-chloro-7-methoxy-2-(pyridin-2-yl)quinolin-4-yloxy)-N-(cyclopropylsulfonyl)-6-(2-(3-fluoropiperidin-1-yl)-2-oxoethyl)-5,16-dioxo-1,2,3,5,6,7,8,9,10,11, 13a,14,14a,15,16,16a-hexadecahydrocyclopropa [e]pyrrolo[1,2-a][1,4] diazacyclopentadecine-14a-carboxamide] was tested, and the pEC50 was > 6.00.
In the case of COc1ccc2c(O[C@@H]3C[C@H]4C(=O)N[C@]5(C(=O)NS(=O)(=O)C6CC6)C[C@H]5/C=C\CCCCC[C@H](CC(=O)N5CCC(C(F)(F)F)CC5)C(=O)N4C3)cc(-c3nc(C(C)C)cs3)nc2c1 [Compound 119, (2R,6R,14aR,16aS,Z)-N-(cyclopropylsulfonyl)-2-(2-(4-isopropylthiazol-2-yl)-7-methoxyquinolin-4-yloxy)-5,16-dioxo-6-(2-oxo-2-(4-(trifluoromethyl)piperidin-1-yl)ethyl)-1,2,3,5,6,7,8,9,10,11, 13a,14,14a,15,16,16a-hexadecahydrocyclopropa [e]pyrrolo[1,2-a][1,4] diazacyclopentadecine-14a-carboxamide], the pEC50 was > 6.00.
CCOC(=O)[C@@]12C[C@H]1/C=C\CCCCC[C@H](CC(=O)N1CCCCC1)C(=O)N1C[C@H](Oc3cc(-c4ccccc4)nc4cc(OC)ccc34)C[C@H]1C(=O)N2 [Compound 45, (2R,6R,13aS,14aR, 16aS,Z)-ethyl 2-(7-methoxy-2-phenylquinolin-4-yloxy)-5,16-dioxo-6-(2-oxo-2-(piperidin-1-yl)ethyl)-1,2,3,5,6,7,8,9,10,11, 13a,14,14a,15,16,16a-hexadecahydrocyclopropa [e]pyrrolo[1,2-a][1,4] diazacyclopentadecine-14a-carboxylate] was tested, and the pEC50 was < 5.00.
COc1ccc2c(O[C@@H]3C[C@H]4C(=O)N[C@]5(C(=O)NS(=O)(=O)C6CC6)C[C@H]5/C=C\CCCCC[C@H](CC(=O)N5CCCC(F)(F)C5)C(=O)N4C3)cc(-c3nc(C(C)C)cs3)nc2c1C [Compound 128, (2R,6R,14aR,16aS,Z)-N-(cyclopropylsulfonyl)-6-(2-(3,3-difluoropiperidin-1-yl)-2-oxoethyl)-2-(2-(4-isopropylthiazol-2-yl)-7-methoxy-8-methylquinolin-4-yloxy)-5,16-dioxo-1,2,3,5,6,7,8,9,10,11, 13a,14,14a,15,16,16a-hexadecahydrocyclopropa [e]pyrrolo[1,2-a][1,4] diazacyclopentadecine-14a-carboxamide] was tested, and the pEC50 was > 6.00.
In the case of COc1ccc2c(O[C@@H]3C[C@H]4C(=O)N[C@]5(C(=O)NS(=O)(=O)C6CC6)C[C@H]5/C=C\CCCCC[C@H](CC(=O)N5CCC(F)CC5)C(=O)N4C3)cc(-c3ccccc3)nc2c1 [Compound 70, (2R,6R,13aS, 14aR,16aS,Z)-N-(cyclopropylsulfonyl)-6-(2-(4-fluoropiperidin-1-yl)-2-oxoethyl)-2-(7-methoxy-2-phenylquinolin-4-yloxy)-5,16-dioxo-1,2,3,5,6,7,8,9,10,11, 13a,14,14a,15,16,16a-hexadecahydrocyclopropa [e]pyrrolo[1,2-a][1,4] diazacyclopentadecine-14a-carboxamide], the pEC50 was > 6.00.
In the case of COc1ccc2c(O[C@@H]3C[C@H]4C(=O)N[C@]5(C(=O)NS(=O)(=O)C6CC6)C[C@H]5/C=C\CCCCC[C@H](CC(=O)N5CCCC(F)(F)C5)C(=O)N4C3)cc(-c3cccnc3)nc2c1C [Compound 129, (2R,6R,14aR,16aS,Z)-N-(cyclopropylsulfonyl)-6-(2-(3,3-difluoropiperidin-1-yl)-2-oxoethyl)-2-(7-methoxy-8-methyl-2-(pyridin-3-yl)quinolin-4-yloxy)-5,16-dioxo-1,2,3,5,6,7,8,9,10,11, 13a,14,14a,15,16,16a-hexadecahydrocyclopropa [e]pyrrolo[1,2-a][1,4] diazacyclopentadecine-14a-carboxamide], the pEC50 was < 5.00.
With COc1ccc2c(O[C@@H]3C[C@H]4C(=O)N[C@](C)(C(=O)NS(=O)(=O)C5CC5)C/C=C\CCCCC[C@H](CC(=O)N5CCCCC5)C(=O)N4C3)cc(-c3ccccc3)nc2c1 [Compound 66, (3S,12R,16R,17aS,Z)-N-(cyclopropylsulfonyl)-16-(7-methoxy-2-phenylquinolin-4-yloxy)-3-methyl-1,13-dioxo-12-(2-oxo-2-(piperidin-1-yl)ethyl)-2,3,4,7,8,9,10, 11,12,13,15,16,17,17a-tetradecahydro-1H-pyrrolo[1,2-a][1,4] diazacyclopentadecine-3-carboxamide] the pEC50 was 5.00 to 6.00.
With COc1ccc2c(O[C@@H]3C[C@H]4C(=O)N[C@]5(C(=O)NS(=O)(=O)C6CC6)C[C@H]5/C=C\CCCCC[C@H](CC(=O)N5CCC(F)(F)CC5)C(=O)N4C3)cc(-c3ccccn3)nc2c1Cl [Compound 93, (2R,6R,14aR,16aS,Z)-2-(8-chloro-7-methoxy-2-(pyridin-2-yl)quinolin-4-yloxy)-N-(cyclopropylsulfonyl)-6-(2-(4,4-difluoropiperidin-1-yl)-2-oxoethyl)-5,16-dioxo-1,2,3,5,6,7,8,9,10,11, 13a,14,14a,15,16,16a-hexadecahydrocyclopropa [e]pyrrolo[1,2-a][1,4] diazacyclopentadecine-14a-carboxamide] the pEC50 was > 6.00.
COc1ccc2c(O[C@@H]3C[C@H]4C(=O)N[C@]5(C(=O)NS(=O)(=O)C6CC6)C[C@H]5/C=C\CCCCC[C@H](CC(=O)N5CC6CC5CO6)C(=O)N4C3)cc(-c3ccccc3)nc2c1 (stereo partly drawn) [Compound 77, (2R,6R,13aS,14aR, 16aS,Z)-6-(2-(2-oxa-5-azabicyclo[2.2.1]heptan-5-yl)-2-oxoethyl)-N-(cyclopropylsulfonyl)-2-(7-methoxy-2-phenylquinolin-4-yloxy)-5,16-dioxo-1,2,3,5,6,7,8,9,10,11, 13a,14,14a,15,16,16a-hexadecahydrocyclopropa [e]pyrrolo[1,2-a][1,4] diazacyclopentadecine-14a-carboxamide] was tested, and the pEC50 was > 6.00.
In the case of COc1ccc2nc(-c3ccccn3)cc(C(=O)N[C@@H]3C[C@H]4C(=O)N[C@]5(C(=O)NS(=O)(=O)C6CC6)C[C@H]5/C=C\CCCCC[C@H](CC(=O)N5CCC(F)(F)CC5)C(=O)N4C3)c2c1 [Compound 97, (2R,6R,14aR,16aS,Z)-N-(cyclopropylsulfonyl)-6-(2-(4,4-difluoropiperidin-1-yl)-2-oxoethyl)-2-(6-methoxy-2-(pyridin-2-yl)quinoline-4-carboxamido)-5,16-dioxo-1,2,3,5,6,7,8,9,10,11, 13a,14,14a,15,16,16a-hexadecahydrocyclopropa [e]pyrrolo[1,2-a][1,4] diazacyclopentadecine-14a-carboxamide], the pEC50 was > 6.00.
COc1ccc2c(O[C@@H]3C[C@H]4C(=O)N[C@]5(C(=O)NS(=O)(=O)C6CC6)C[C@H]5/C=C\CCCCC[C@H](CC(=O)N5CCCCC5)C(=O)N4C3)cc(-c3ccccn3)nc2c1Cl [Compound 90, (2R,6R,14aR,16aS,Z)-2-(8-chloro-7-methoxy-2-(pyridin-2-yl)quinolin-4-yloxy)-N-(cyclopropylsulfonyl)-5, 16-dioxo-6-(2-oxo-2-(piperidin-1-yl)ethyl)-1,2,3,5,6,7,8,9,10,11, 13a,14,14a,15,16,16a-hexadecahydrocyclopropa [e]pyrrolo[1,2-a][1,4] diazacyclopentadecine-14a-carboxamide] was tested, and the pEC50 was > 6.00.

— patent US8697641B2, “4-amino-4-oxobutanoyl peptide cyclic analogues, inhibitors of viral replication” (Achillion Pharmaceuticals, Inc., priority 2008, dated 2014)
